Measured values taken from ChEMBL document CHEMBL1140218, “Novel bis- and tris-1,2,4-trioxanes: synthesis and antimalarial activity against multidrug-resistant Plasmodium yoelii in Swiss mice” (J Med Chem, 2008).
The source made the active and inactive calls. The calls are words filed in the database; no cut-off is given here.

Columns and labels:
[1] = test system: Plasmodium yoelii nigeriensis; assay: Antimalarial activity as survival time against multidrug-resistant Plasmodium yoelii nigeriensis in Swiss mice (Mus musculus) at 96 mg/kg peroral dose for 4 days; assay type: functional; settings: route oral
[2] = test system: Plasmodium yoelii nigeriensis; assay: Antimalarial activity as reduced parasitaemia against multidrug-resistant Plasmodium yoelii nigeriensis in Swiss mice (Mus musculus) at 96 mg/kg peroral dose for 4 days; assay type: functional; set-up: scale not given: the % may be the effect or the level left; settings: route oral
[3] = test system: Plasmodium yoelii nigeriensis; assay: Antimalarial activity as cures against multidrug-resistant Plasmodium yoelii nigeriensis in Swiss mice (Mus musculus) at 96 mg/kg peroral dose for 4 days; assay type: functional, organism-based; set-up: dose 96 mg/kg
[4] = test system: Plasmodium yoelii nigeriensis; assay: Antimalarial activity as cures against multidrug-resistant Plasmodium yoelii nigeriensis infected Swiss mice (Mus musculus) at 48 mg/kg peroral dose over 4 days; assay type: functional, organism-based; set-up: dose 48 mg/kg
[5] = test system: Plasmodium yoelii nigeriensis; assay: Antimalarial activity as reduced parasitaemia against multidrug-resistant Plasmodium yoelii nigeriensis in Swiss mice (Mus musculus) at 48 mg/kg peroral dose for 4 days; assay type: functional; set-up: scale not given: the % may be the effect or the level left; settings: route oral
[6] = test system: Plasmodium yoelii nigeriensis; assay: Antimalarial activity as survival time against multidrug-resistant Plasmodium yoelii nigeriensis in Swiss mice (Mus musculus) at 48 mg/kg peroral dose for 4 days; assay type: functional; settings: route oral
[7] = test system: Plasmodium yoelii nigeriensis; assay: Antimalarial activity as reduced parasitaemia against multidrug-resistant Plasmodium yoelii nigeriensis in Swiss mice (Mus musculus) at 24 mg/kg peroral dose for 4 days; assay type: functional; set-up: scale not given: the % may be the effect or the level left; settings: route oral
[8] = test system: Plasmodium yoelii nigeriensis; assay: Antimalarial activity as survival time against multidrug-resistant Plasmodium yoelii nigeriensis in Swiss mice (Mus musculus) at 24 mg/kg peroral dose for 4 days; assay type: functional; settings: route oral
[9] = Solubility in groundnut oil; assay type: physicochemical

SMILES: C=C(c1ccc(Oc2ccc3ccc(Oc4ccc(C(=C)C5COC6(CCCC6)OO5)cc4)cc3c2)cc1)C1COC2(CCCC2)OO1 (centres undefined)
- Survival [1]: 7.8 days
- Activity [2]: 42.29%
- Activity [3]: inactive

SMILES: C=C(c1ccc(Oc2ccc(C(=C)C3COC4(CCCC4)OO3)cc2)cc1)C1COC2(CCCC2)OO1 (centres undefined)
- Activity [4]: Active
- Activity [5]: 100%
- Survival [1]: >28 days
- Activity [2]: 100%
- Survival [6]: >28 days
- Activity [3]: Active
- Activity [7]: 100%
- Survival [8]: >21.2 days

SMILES: C=C(c1ccc(OCCCOc2ccc(C(=C)C3COC4(CCCC4)OO3)cc2)cc1)C1COC2(CCCC2)OO1 (centres undefined)
- Activity [4]: inactive
- Activity [5]: 100%
- Survival [1]: >28 days
- Activity [2]: 100%
- Survival [6]: 12.8 days
- Activity [3]: Active

SMILES: C=C(c1ccc(OCC(O)COc2ccc(C(=C)C3COC4(CCCC4)OO3)cc2)cc1)C1COC2(CCCC2)OO1 (centres undefined)
- Activity [4]: inactive
- Activity [5]: 74.32%
- Survival [1]: >28 days
- Activity [2]: 100%
- Survival [6]: 9.6 days
- Activity [3]: Active

SMILES: C=C(c1ccc(OCCCOc2ccc(C(=C)C3COC4(OO3)C3CC5CC(C3)CC4C5)cc2)cc1)C1COC2(OO1)C1CC3CC(C1)CC2C3 (centres undefined)
- Survival [1]: 7.4 days
- Activity [2]: 32.54%
- Activity [3]: inactive

SMILES: C=C(c1ccc(Oc2cccc3c(Oc4ccc(C(=C)C5COC6(OO5)C5CC7CC(C5)CC6C7)cc4)cccc23)cc1)C1COC2(OO1)C1CC3CC(C1)CC2C3 (centres undefined)
- Survival [1]: 7.4 days
- Activity [2]: 12.27%
- Activity [3]: inactive

SMILES: CCO[C@@H]1C[C@@H]2CC[C@@H](C)[C@@H]3CC[C@]4(C)OO[C@@]23[C@H](O1)O4
- Activity [4]: Active
- Activity [5]: 100%
- Survival [1]: >28 days
- Activity [7]: 100%

SMILES: C=C(c1ccc(OCCOc2ccc(C(=C)C3COC4(CCCCC4)OO3)cc2)cc1)C1COC2(CCCCC2)OO1 (centres undefined)
- Survival [1]: 10.6 days
- Activity [2]: 86.29%
- Activity [3]: inactive

SMILES: C=C(c1ccc(Oc2ccc(Oc3ccc(C(=C)C4COC5(OO4)C4CC6CC(C4)CC5C6)cc3)cc2)cc1)C1COC2(OO1)C1CC3CC(C1)CC2C3 (centres undefined)
- Survival [1]: 9 days
- Activity [2]: 38.46%
- Activity [3]: inactive

SMILES: C=C(c1ccc(Oc2cccc(C(=C)C3COC4(CCCC4)OO3)c2)cc1)C1COC2(CCCC2)OO1 (centres undefined)
- Activity [4]: inactive
- Activity [5]: 100%
- Survival [1]: >28 days
- Activity [2]: 100%
- Survival [6]: 12.2 days
- Activity [3]: Active

SMILES: C=C(c1ccc(Oc2cc(Oc3ccc(C(=C)C4COC5(CCCCC5)OO4)cc3)cc(Oc3ccc(C(=C)C4COC5(CCCCC5)OO4)cc3)c2)cc1)C1COC2(CCCCC2)OO1 (centres undefined)
- Survival [1]: 8.4 days
- Activity [2]: 26.37%
- Activity [3]: inactive

SMILES: C=C(c1ccc(Oc2ccc(C(=C)C3COC4(CCCCC4)OO3)cc2)cc1)C1COC2(CCCCC2)OO1 (centres undefined)
- Activity [4]: inactive
- Activity [5]: 100%
- Survival [1]: >28 days
- Activity [2]: 100%
- Survival [6]: 11.8 days
- Activity [3]: Active

SMILES: C=C(c1ccc(Oc2cccc3c(Oc4ccc(C(=C)C5COC6(CCCC6)OO5)cc4)cccc23)cc1)C1COC2(CCCC2)OO1 (centres undefined)
- Survival [1]: 8.4 days
- Activity [2]: 40.05%
- Activity [3]: inactive

SMILES: C=C(c1ccc(OCC(O)COc2ccc(C(=C)C3COC4(OO3)C3CC5CC(C3)CC4C5)cc2)cc1)C1COC2(OO1)C1CC3CC(C1)CC2C3 (centres undefined)
- Survival [1]: 8.6 days
- Activity [2]: 26.76%
- Activity [3]: inactive

SMILES: C=C(c1ccc(Oc2ccc(Oc3ccc(C(=C)C4COC5(CCCCC5)OO4)cc3)cc2)cc1)C1COC2(CCCCC2)OO1 (centres undefined)
- Survival [1]: 8.6 days
- Activity [2]: 47.33%
- Activity [3]: inactive

SMILES: C=C(c1ccc(Oc2ccc3ccc(Oc4ccc(C(=C)C5COC6(CCCCC6)OO5)cc4)cc3c2)cc1)C1COC2(CCCCC2)OO1 (centres undefined)
- solubility [9]: Insoluble

SMILES: C=C(c1ccc(Oc2cccc(C(=C)C3COC4(CCCCC4)OO3)c2)cc1)C1COC2(CCCCC2)OO1 (centres undefined)
- Survival [1]: 10 days
- Activity [2]: 76.79%
- Activity [3]: inactive

SMILES: C=C(c1ccc(Oc2cc(Oc3ccc(C(=C)C4COC5(OO4)C4CC6CC(C4)CC5C6)cc3)cc(Oc3ccc(C(=C)C4COC5(OO4)C4CC6CC(C4)CC5C6)cc3)c2)cc1)C1COC2(OO1)C1CC3CC(C1)CC2C3 (centres undefined)
- Survival [1]: 7.4 days
- Activity [2]: 5.47%
- Activity [3]: inactive

SMILES: C=C(c1ccc(OCCCOc2ccc(C(=C)C3COC4(CCCCC4)OO3)cc2)cc1)C1COC2(CCCCC2)OO1 (centres undefined)
- Activity [4]: inactive
- Activity [5]: 87.47%
- Survival [1]: >28 days
- Activity [2]: 100%
- Survival [6]: 10.8 days
- Activity [3]: Active

SMILES: C=C(c1ccc(Oc2cc(Oc3ccc(C(=C)C4COC5(CCCC5)OO4)cc3)cc(Oc3ccc(C(=C)C4COC5(CCCC5)OO4)cc3)c2)cc1)C1COC2(CCCC2)OO1 (centres undefined)
- Survival [1]: 7.2 days
- Activity [2]: 3.22%
- Activity [3]: inactive

SMILES: C=C(c1ccc(Oc2cccc3c(Oc4ccc(C(=C)C5COC6(CCCCC6)OO5)cc4)cccc23)cc1)C1COC2(CCCCC2)OO1 (centres undefined)
- Survival [1]: 8.2 days
- Activity [2]: 16.36%
- Activity [3]: inactive

SMILES: C=C(c1ccc(Oc2ccc(C(=C)C3COC4(OO3)C3CC5CC(C3)CC4C5)cc2)cc1)C1COC2(OO1)C1CC3CC(C1)CC2C3 (centres undefined)
- Survival [1]: 7.2 days
- Activity [2]: 36.74%
- Activity [3]: inactive

SMILES: C=C(c1ccc(OCC(O)COc2ccc(C(=C)C3COC4(CCCCC4)OO3)cc2)cc1)C1COC2(CCCCC2)OO1 (centres undefined)
- Activity [4]: inactive
- Activity [5]: 75.86%
- Survival [1]: >28 days
- Activity [2]: 100%
- Survival [6]: 8 days
- Activity [3]: Active

SMILES: C=C(c1ccc(Oc2ccc3ccc(Oc4ccc(C(=C)C5COC6(OO5)C5CC7CC(C5)CC6C7)cc4)cc3c2)cc1)C1COC2(OO1)C1CC3CC(C1)CC2C3 (centres undefined)
- Survival [1]: 7.4 days
- Activity [2]: 36.07%
- Activity [3]: inactive

SMILES: C=C(c1ccc(OCCOc2ccc(C(=C)C3COC4(CCCC4)OO3)cc2)cc1)C1COC2(CCCC2)OO1 (centres undefined)
- Activity [4]: inactive
- Activity [5]: 87.76%
- Survival [1]: >28 days
- Activity [2]: 100%
- Survival [6]: 12.2 days
- Activity [3]: Active

SMILES: C=C(c1ccc(OCCOc2ccc(C(=C)C3COC4(OO3)C3CC5CC(C3)CC4C5)cc2)cc1)C1COC2(OO1)C1CC3CC(C1)CC2C3 (centres undefined)
- Survival [1]: 7.6 days
- Activity [2]: 66.39%
- Activity [3]: inactive

SMILES: C=C(c1ccc(Oc2cccc(C(=C)C3COC4(OO3)C3CC5CC(C3)CC4C5)c2)cc1)C1COC2(OO1)C1CC3CC(C1)CC2C3 (centres undefined)
- Survival [1]: 7.6 days
- Activity [2]: 7.16%
- Activity [3]: inactive

SMILES: C=C(c1ccc(Oc2ccc(Oc3ccc(C(=C)C4COC5(CCCC5)OO4)cc3)cc2)cc1)C1COC2(CCCC2)OO1 (centres undefined)
- Survival [1]: 7.6 days
- Activity [2]: 50.83%
- Activity [3]: inactive
